Measured values published in patent US12565467B2, “Compounds, compositions, and methods for the treatment of inflammatory, degenerative, and neurodegenerative diseases” (Board of Supervisors of Louisiana State University and …, priority 2015, dated 2026).

How the values were obtained:
[1] = system: neuronal cells in primary cultures; assay: NMDA-induced toxicity in neuronal cells in primary culture, MTT assay for cell viability; format: cell-based
From the text: FIG. 11. […] In several neurological and neurodegenerative diseases, such as stroke, epilepsy, status epilepticus, traumatic head injury, etc., as well as ophthalmological diseases, such as glaucoma, an excessive presynaptic release of the excitatory neurotransmitter glutamate takes place. As a consequence, glutamate transporters that function to remove extracellular glutamate from astrocytes and neurons are overwhelmed and the NMDA-type glutamate receptor is over-activated. This receptor is a calcium channel that therefore leads to a flooding of calcium into the postsynaptic cell. The overall phenomena is refer to as excitotoxicity that in turn leads to neuronal damage and cell death. MK801 is a known blocker of this receptor used here as a control.
In several neurological and neurodegenerative diseases, such as stroke, epilepsy, status epilepticus, traumatic head injury, etc., as well as ophthalmological diseases, such as glaucoma, an excessive presynaptic release of the excitatory neurotransmitter glutamate takes place. As a consequence, glutamate transporters that function to remove extracellular glutamate from astrocytes and neurons are overwhelmed and the NMDA-type glutamate receptor is over-activated. This receptor is a calcium channel that therefore leads to a flooding of calcium into the postsynaptic cell. The overall phenomena is refer to as excitotoxicity that in turn leads to neuronal damage and cell death. MK801 is a known blocker of this receptor used here as a control.

SIRT1 = SIRT1 abundance in ARPE-19 cells under oxidative stress; format: cell-based; details: ARPE-19 / human RPE cells confronted with OS
From the text: FIG. 10. (A) Effect of NPD1 and VLC-PUFA C32:6 and C34:6 in mediating upregulation of SIRT1 in ARPE-19 cells. (B) Quantification of SIRT1 upregulation by NPD1, C32:6 and C34:6. SIRT1 (Sirtuin1) belongs to a family of highly conserved proteins linked to caloric restriction beneficial outcomes and aging by regulating energy metabolism, genomic stability and stress resistance. SIRT1 is a potential therapeutic target in several diseases including cancer, diabetes, inflammatory disorders, and neurodegenerative diseases or disorders. Elovanoids induce cell survival involving the upregulation of the Bcl2 class of survival proteins and the downregulation of pro-apoptotic Bad and Bax under oxidative stress (OS) in RPE cells. […] As a consequence, remarkable cell survival takes place. This target of elovanoids might be relevant to counteract consequences of several diseases associated with SIRT1.
FIG. 10—(A) Effect of NPD1 and VLC-PUFA C32:6 and C34:6 in mediating upregulation of SIRT1 in ARPE-19 cells. (B) Quantification of SIRT1 upregulation by NPD1, C32:6 and C34:6. SIRT1 (Sirtuin1) belongs to a family of highly conserved proteins linked to caloric restriction beneficial outcomes and aging by regulating energy metabolism, genomic stability and stress resistance. […]

ARPE-19 cells = assay: Oxidative stress induced apoptosis / cell death in ARPE-19 cells; format: cell-based, human; details: for concentration dependent cytoprotection (FIG. 5C): ARPE-19 under OS
Protocol: FIG. 5. (A) Effect of PD146176 on VLC-PUFA-inhibited apoptosis induced by OS in ARPE-19 cells. […] It is evident that 32:6 and 34:6 LCAF were able to induce a substantial amount (55 and 48% respectively) of neuroprotection compared to PD 146176 (22%) when the stressed cells were treated with 5 μm of 15-LOX-D1 inhibitor. It can be concluded that since PD146176 is the inhibitor of 15-lipooxygenase enzyme, it might be protecting the stressed RPE cells by accumulating neuroprotective agents inside the cells. (B) Comparison of cytoprotective capacities of NPD1, C32:6 and C34:6 VLC-PUFA on oxidative stress-induced apoptosis in 15-LOX-1 cells. Shown here is the comparison of neuroprotection in a 15-LOX-1-deficient cell line under oxidative stress with 32:6 and 34:6 VLC-PUFA along with NPD1. 32:6 and 34:6 LCAF were able to induce neuroprotection (45% and 40% respectively), as compared to oxidative stress (90%) under this condition. (C) Concentration dependent cytoprotection by C32:6 and C34:6 VLC-PUFA in oxidative-stress induced ARPE-19 cells. A concentration (50-500 nM) kinetic of cytoprotection induced by LCAF 32:6 and 34:6 in RPE cell culture under OS was shown here. […] We decided to use 250 nM concentrations of 32:6 and 34:6 LCAF in subsequent experiments. (D) Selected images of alive and dead cells from this study (control, OS, treatment with C32:6).
FIG. 5—(A) Effect of PD146176 on VLC-PUFA inhibited apoptosis induced by OS in ARPE-19 cells. […] It is evident that 32:6 and 34:6 LCAF were able to induce a substantial amount (55 and 48% respectively) of neuroprotection compared to PD 146176 (22%) when the stressed cells were treated with 5 μm of 15-LOX-D1 inhibitor. It can be concluded that since PD146176 is the inhibitor of 15-lipooxygenase enzyme, it might be protecting the stressed RPE cells by accumulating neuroprotective agents inside the cells. (B) Comparison of cytoprotective capacities of NPD1, C32:6 and C34:6 VLC-PUFA on oxidative stress-induced apoptosis in 15-LOX-1 cells. Shown here is the comparison of neuroprotection in a 15-LOX-1-deficient cell line under oxidative stress with 32:6 and 34:6 VLC-PUFA along with NPD1. 32:6 and 34:6 VLC-PUFA were able to induce neuroprotection (45% and 40% respectively), as compared to oxidative stress (90%) under this condition. (C) Concentration dependent cytoprotection by C32:6 and C34:6 VLC-PUFA in oxidative-stress induced ARPE-19 cells. A concentration (50-500 nM) kinetic of cytoprotection induced by VLC-PUFA 32:6 and 34:6 in RPE cell culture under OS was shown here. […] We decided to use 250 nM concentrations of 32:6 and 34:6 VLC-PUFA in subsequent experiments. (D) Selected images of alive and dead cells from this study (control, OS, treatment with C32:6).

Compound: CC/C=C\C[C@H](O)\C=C/C=C/C=C/[C@H](O)C/C=C\C/C=C\CCCCCCCCCCCCCCC(=O)O [ELV2, (16Z,19Z,22R,23E,25E,27Z,29S,31Z)-22,29-dihydroxytetratriaconta-16,19,23,25,27,31-hexaenoic acid]
- protection of neuronal cells from NMDA-induced toxicity (FIG. 11A) ([1]; 200 nM): potently protects neuronal cells
- cell death and cell viability with NMDA in increasing concentrations (FIG. 11) ([1]; neuronal cultures, MTT): reduces cell death and increases cell viability

Compound: CC/C=C\C/C=C\C/C=C\C/C=C\C/C=C\C/C=C\CCCCCCCCCCCCCCC(=O)O [C34:6]
- effect on SIRT1 abundance (FIG. 10) (SIRT1): mediate the upregulation of SIRT1
- concentration dependent cytoprotection (FIG. 5C) (ARPE-19 cells; 250 nM): very good intermediate effect
- concentration dependent cytoprotection (FIG. 5C) (ARPE-19 cells; 500 nM): maximum effect
- protection against OS in RPE cells (summary, FIGS. 4-10) (ARPE-19 cells; RPE cells): protective against OS
- concentration dependent cytoprotection (FIG. 5C) (ARPE-19 cells; starting from 50 nM): gradual decrease of cell deaths
- neuroprotection (FIG. 5A) (ARPE-19 cells; stressed ARPE-19 cells treated with 5 μm of 15-LOX-D1 inhibitor PD146176): 48%
